How the values were obtained:
[1] = target: USP25 (Homo sapiens (Human), UniProt Q9UHP3); experiment: Ubiquitin-Rhodamine 110 Assay for USP25 Activity; assay type: biochemical
Summary of the method: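 USP25-His6 (75 pM) preincubated 30 min with compound (25 μM to 1.3 nM, 10-point 3-fold), then Ub-Rh110 added; 45 min at room temperature in pH 8.0 Tris buffer with BME, BGG, Triton X-100, stopped with 10 mM citric acid. Fluorescence 485/535 nm; % inhibition vs no-enzyme and DMSO controls, IC50 by 4-parameter logistic fit.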

[2] = target: USP28 (Homo sapiens (Human), UniProt Q96RU2); experiment: Ubiquitin-Rhodamine 110 Assay for USP28 Activity; assay type: biochemical
USP28, sequence (Q96RU2 whole entry): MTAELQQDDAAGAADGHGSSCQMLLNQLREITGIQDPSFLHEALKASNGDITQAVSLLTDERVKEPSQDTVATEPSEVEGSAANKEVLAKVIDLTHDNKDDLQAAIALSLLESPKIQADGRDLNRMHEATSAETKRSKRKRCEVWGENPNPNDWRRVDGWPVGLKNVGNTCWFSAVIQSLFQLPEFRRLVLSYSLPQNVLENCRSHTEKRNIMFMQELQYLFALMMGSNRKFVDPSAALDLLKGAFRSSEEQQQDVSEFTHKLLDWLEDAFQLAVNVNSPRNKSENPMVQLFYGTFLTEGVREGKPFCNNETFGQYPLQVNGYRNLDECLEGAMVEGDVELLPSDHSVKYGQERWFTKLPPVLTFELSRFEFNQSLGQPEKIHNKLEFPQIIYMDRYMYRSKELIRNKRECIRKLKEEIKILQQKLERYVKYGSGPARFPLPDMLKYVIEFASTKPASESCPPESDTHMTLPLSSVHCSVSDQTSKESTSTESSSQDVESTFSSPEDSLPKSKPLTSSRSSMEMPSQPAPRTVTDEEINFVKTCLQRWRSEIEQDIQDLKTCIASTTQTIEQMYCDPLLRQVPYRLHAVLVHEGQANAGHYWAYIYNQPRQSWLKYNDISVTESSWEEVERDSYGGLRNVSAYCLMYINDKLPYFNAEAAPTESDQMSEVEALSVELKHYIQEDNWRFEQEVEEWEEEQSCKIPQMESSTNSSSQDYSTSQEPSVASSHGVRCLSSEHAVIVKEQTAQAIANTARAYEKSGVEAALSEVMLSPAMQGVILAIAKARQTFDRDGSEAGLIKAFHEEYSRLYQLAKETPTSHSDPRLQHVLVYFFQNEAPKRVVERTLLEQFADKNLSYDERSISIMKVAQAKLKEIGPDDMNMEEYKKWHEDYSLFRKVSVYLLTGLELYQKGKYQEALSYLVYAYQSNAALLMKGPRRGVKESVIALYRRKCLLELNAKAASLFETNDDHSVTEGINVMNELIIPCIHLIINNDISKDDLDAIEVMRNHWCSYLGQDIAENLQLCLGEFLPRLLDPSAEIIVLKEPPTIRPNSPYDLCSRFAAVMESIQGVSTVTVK
Summary of the method: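 Single-point screen at 10 μM, 90 min; follow-up dose-response (25 μM top, 3-fold) with 75 pM USP28 (1-1077)-TEV-6*His, 30 min compound preincubation, Ub-Rh110 substrate for 20 min at room temperature, citric acid stop. Buffer pH 8.0 Tris; fluorescence 485/535 nm; IC50 by 4-parameter logistic fit of % inhibition.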

USP25, sequence (Q9UHP3 whole entry): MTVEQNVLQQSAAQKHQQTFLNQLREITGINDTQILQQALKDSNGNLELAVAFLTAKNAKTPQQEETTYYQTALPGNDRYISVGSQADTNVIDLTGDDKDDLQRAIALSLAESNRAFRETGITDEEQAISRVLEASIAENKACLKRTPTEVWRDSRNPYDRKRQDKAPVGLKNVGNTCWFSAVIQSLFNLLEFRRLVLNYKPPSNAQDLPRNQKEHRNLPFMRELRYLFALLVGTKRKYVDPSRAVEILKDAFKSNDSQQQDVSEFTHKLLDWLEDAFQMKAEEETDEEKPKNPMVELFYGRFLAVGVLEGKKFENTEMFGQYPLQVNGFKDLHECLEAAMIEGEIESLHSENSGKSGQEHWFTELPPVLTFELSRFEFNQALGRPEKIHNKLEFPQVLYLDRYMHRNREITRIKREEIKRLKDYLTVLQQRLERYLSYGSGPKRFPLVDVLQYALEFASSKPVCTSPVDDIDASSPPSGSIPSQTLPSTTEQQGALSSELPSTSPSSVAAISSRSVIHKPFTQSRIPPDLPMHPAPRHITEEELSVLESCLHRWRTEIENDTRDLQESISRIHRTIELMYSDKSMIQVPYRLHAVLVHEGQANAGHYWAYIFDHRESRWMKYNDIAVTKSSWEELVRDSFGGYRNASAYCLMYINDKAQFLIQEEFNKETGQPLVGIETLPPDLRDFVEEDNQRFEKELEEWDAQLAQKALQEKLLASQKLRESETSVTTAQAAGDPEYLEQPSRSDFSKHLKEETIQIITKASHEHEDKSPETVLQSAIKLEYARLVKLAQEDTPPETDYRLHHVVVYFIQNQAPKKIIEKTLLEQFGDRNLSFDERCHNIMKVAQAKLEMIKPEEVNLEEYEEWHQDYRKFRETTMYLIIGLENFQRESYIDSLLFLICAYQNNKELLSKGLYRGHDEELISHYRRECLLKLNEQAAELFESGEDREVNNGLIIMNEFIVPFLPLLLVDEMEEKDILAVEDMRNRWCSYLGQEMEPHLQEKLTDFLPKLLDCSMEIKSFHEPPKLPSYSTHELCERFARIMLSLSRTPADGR

Compound: Cc1cc(N)nc2sc(C(=O)NCCc3ccc(N4CCNCC4)cc3)c(N)c12 [Example I-183, 3,6-Diamino-4-methyl-N-(4-(piperazin-1-yl)phenethyl)thieno[2,3-b]pyridine-2-carboxamide]
- IC50 [1]: 200 to 2000 nM
- IC50 [2]: 200 to 2000 nM

Compound: Nc1ccc2c(N)c(C(=O)NCCc3ccc(N4CCNCC4)cc3)sc2n1 [Example I-184]
- IC50 [1]: 200 to 2000 nM
- IC50 [2]: 200 to 2000 nM

Compound: CN(C)c1ccc2c(N)c(C(=O)NCCc3ccc(N4CCNCC4)cc3)sc2n1 [Example I-186, 3-Amino-6-(dimethylamino)-N-(4-(piperazin-1-yl)phenethyl)thieno[2,3-b]pyridine-2-carboxamide]
- IC50 [1]: 10000 to 25000 nM
- IC50 [2]: 2000 to 10000 nM

Compound: CCNc1ccc2c(N)c(C(=O)NCCc3ccc(N4CCNCC4)cc3)sc2n1 [Example I-188]
- IC50 [1]: 200 to 2000 nM
- IC50 [2]: < 200 nM

Compound: CC(C)Nc1ccc2c(N)c(C(=O)NCCc3ccc(N4CCNCC4)cc3)sc2n1 [Example I-189]
- IC50 [1]: 2000 to 10000 nM
- IC50 [2]: 200 to 2000 nM

Compound: COc1ccc2c(N)c(C(=O)NCCc3ccc(N4CCNCC4)cc3)sc2n1 [Example I-190, 3-Amino-6-methoxy-N-(4-(piperazin-1-yl)phenethyl)thieno[2,3-b]pyridine-2-carboxamide]
- IC50 [1]: 200 to 2000 nM
- IC50 [2]: 200 to 2000 nM

Compound: CCOc1ccc2c(N)c(C(=O)NCCc3ccc(N4CCNCC4)cc3)sc2n1 [Example I-191]
- IC50 [1]: 2000 to 10000 nM
- IC50 [2]: 200 to 2000 nM

Compound: CC(C)Oc1ccc2c(N)c(C(=O)NCCc3ccc(N4CCNCC4)cc3)sc2n1 [Example I-192]
- IC50 [1]: 2000 to 10000 nM
- IC50 [2]: 200 to 2000 nM

Compound: Nc1c(C(=O)NCCc2ccc(N3CCNCC3)cc2)sc2nc(OC(F)F)ccc12 [Example I-193, 3-Amino-6-(difluoromethoxy)-N-(4-(piperazin-1-yl)phenethyl)thieno[2,3-b]pyridine-2-carboxamide]
- IC50 [1]: 200 to 2000 nM
- IC50 [2]: < 200 nM

Compound: CNc1ccc2c(N)c(C(=O)NCCc3ccc(N4CCN(C)CC4)cc3)sc2n1 [Example I-195]
- IC50 [1]: 200 to 2000 nM
- IC50 [2]: < 200 nM

Compound: CNc1ccc2c(N)c(C(=O)NCCc3ccc(C4CCNCC4)cc3)sc2n1 [Example I-196]
- IC50 [1]: 200 to 2000 nM
- IC50 [2]: 200 to 2000 nM

Compound: Cc1nc2sc(C(=O)NCCc3ccc(N4CCNCC4)cc3)c(N)c2cc1C1CC1 [Example I-197, 3-Amino-5-cyclopropyl-6-methyl-N-(4-(piperazin-1-yl)phenethyl)thieno[2,3-b]pyridine-2-carboxamide]
- IC50 [1]: 10000 to 25000 nM
- IC50 [2]: 2000 to 10000 nM

Compound: Cc1nc2sc(C(=O)NCCc3ccc(N4CCNCC4)cc3)c(N)c2cc1N [Example I-198, 3,5-Diamino-6-methyl-N-(4-(piperazin-1-yl)phenethyl)thieno[2,3-b]pyridine-2-carboxamide]
- IC50 [1]: 10000 to 25000 nM
- IC50 [2]: 2000 to 10000 nM

Compound: CNC1CN(c2cc(F)c(CCNC(=O)c3sc4nc(C)ccc4c3N)cc2F)C1 [Example I-199, 3-Amino-N-(2,5-difluoro-4-(3-(methylamino)azetidin-1-yl)phenethyl) -6-methylthieno[2,3-b]pyridine-2-carboxamide]
- IC50 [1]: 200 to 2000 nM
- IC50 [2]: 200 to 2000 nM

Compound: CCN[C@@H]1CCN(c2ccc(CCNC(=O)c3sc4nc(C)ccc4c3N)cc2)C1 [Example I-200, (R)-3-amino-N-(4-(3-(ethylamino)pyrrolidin-1-yl)phenethyl)-6-methylthieno[2,3-b]pyridine-2-carboxamide]
- IC50 [1]: 200 to 2000 nM
- IC50 [2]: 200 to 2000 nM

Compound: Cc1ccc2c(N)c(C(=O)NC[C@@H](C)c3ccc(N4CCNCC4)cc3)sc2n1 [Example I-203]
- IC50 [1]: 2000 to 10000 nM
- IC50 [2]: 200 to 2000 nM

Compound: Cc1ccc2c(N)c(C(=O)NC[C@H](C)c3cc(F)c(N4CCNCC4)cc3F)sc2n1 [Example I-208]
- IC50 [1]: 2000 to 10000 nM
- IC50 [2]: 200 to 2000 nM

Compound: Cc1ccc2c(N)c(C(=O)NCCc3cnc(N4CCNCC4)c(Cl)c3)sc2n1 [Example I-215, 3-Amino-N-(2-(5-chloro-6-(piperazin-1-yl)pyridin-3-yl)ethyl)-6-methylthieno[2,3-b]pyridine-2-carboxamide]
- IC50 [1]: 2000 to 10000 nM
- IC50 [2]: 200 to 2000 nM

Compound: N#Cc1ccc2c(N)c(C(=O)NCCc3cc(F)c(N4CCNCC4)cc3F)sc2n1 [Example I-220, 3-Amino-6-cyano-N-(2,5-difluoro-4-(piperazin-1-yl)phenethyl)thieno[2,3-b]pyridine-2-carboxamide]
- IC50 [1]: 2000 to 10000 nM
- IC50 [2]: 2000 to 10000 nM

Compound: Nc1c(C(=O)NCCc2ccc(N3CCNCC3)cc2)sc2nc3c(cc12)CCC3O (stereo not shown) [Example I-223, 3-Amino-7-hydroxy-N-(4-(piperazin-1-yl)phenethyl)-6,7-dihydro-5H-cyclopenta[b]thieno[3,2-e]pyridine-2-carboxamide]
- IC50 [1]: 200 to 2000 nM
- IC50 [2]: 2000 to 10000 nM
